Experimental data taken from the NIST ThermoML archive (doi:10.1016/j.jct.2016.08.008).
Numbers after ± are expanded uncertainties.

Experiment: activity coefficient (dimensionless); of the first substance listed, at infinite dilution; xn = mol fraction of the nth substance listed
Settings: 318.15 K; 101.33 kPa; Liquid; Chromatography; x1 = 0
Cc1ccccc1C [1,2-dimethylbenzene] + CCCCCCCCCCCCn1cc[n+](C)c1.O=S(=O)([N-]S(=O)(=O)C(F)(F)F)C(F)(F)F gave an activity coefficient of 0.812 ± 0.053. With Cc1cccc(C)c1 [1,3-dimethylbenzene] + CCCCCCCCCCCCn1cc[n+](C)c1.O=S(=O)([N-]S(=O)(=O)C(F)(F)F)C(F)(F)F the activity coefficient was 0.874 ± 0.056. With Cc1ccc(C)cc1 [1,4-dimethylbenzene] + CCCCCCCCCCCCn1cc[n+](C)c1.O=S(=O)([N-]S(=O)(=O)C(F)(F)F)C(F)(F)F the activity coefficient was 0.869 ± 0.056. Compound C1COCCO1 [1,4-dioxane] + CCCCCCCCCCCCn1cc[n+](C)c1.O=S(=O)([N-]S(=O)(=O)C(F)(F)F)C(F)(F)F has an activity coefficient of 0.474 ± 0.037. C=CCCCCCCCC [1-decene] + CCCCCCCCCCCCn1cc[n+](C)c1.O=S(=O)([N-]S(=O)(=O)C(F)(F)F)C(F)(F)F showed an activity coefficient of 4.18 ± 0.28. For C=CCCCCC [1-heptene] + CCCCCCCCCCCCn1cc[n+](C)c1.O=S(=O)([N-]S(=O)(=O)C(F)(F)F)C(F)(F)F, the activity coefficient was 2.56 ± 0.17. Compound C#CCCCCC [1-heptyne] + CCCCCCCCCCCCn1cc[n+](C)c1.O=S(=O)([N-]S(=O)(=O)C(F)(F)F)C(F)(F)F has an activity coefficient of 1.47 ± 0.1. Compound C#CCCCC [1-hexyne] + CCCCCCCCCCCCn1cc[n+](C)c1.O=S(=O)([N-]S(=O)(=O)C(F)(F)F)C(F)(F)F has an activity coefficient of 1.25 ± 0.08. For CCC[N+](=O)[O-] [1-nitropropane] + CCCCCCCCCCCCn1cc[n+](C)c1.O=S(=O)([N-]S(=O)(=O)C(F)(F)F)C(F)(F)F, the activity coefficient was 0.567 ± 0.041. Work on C#CCCCCCC [1-octyne] + CCCCCCCCCCCCn1cc[n+](C)c1.O=S(=O)([N-]S(=O)(=O)C(F)(F)F)C(F)(F)F yielded an activity coefficient of 1.74 ± 0.12. For C=CCCC [1-pentene] + CCCCCCCCCCCCn1cc[n+](C)c1.O=S(=O)([N-]S(=O)(=O)C(F)(F)F)C(F)(F)F, the activity coefficient was 1.82 ± 0.12. In the case of C#CCCC [1-pentyne] + CCCCCCCCCCCCn1cc[n+](C)c1.O=S(=O)([N-]S(=O)(=O)C(F)(F)F)C(F)(F)F, the activity coefficient is reported as 1.07 ± 0.07. Compound CC(C)CC(C)(C)C [2,2,4-trimethylpentane] + CCCCCCCCCCCCn1cc[n+](C)c1.O=S(=O)([N-]S(=O)(=O)C(F)(F)F)C(F)(F)F has an activity coefficient of 3.59 ± 0.24. For CCC(C)(C)C [2,2-dimethylbutane] + CCCCCCCCCCCCn1cc[n+](C)c1.O=S(=O)([N-]S(=O)(=O)C(F)(F)F)C(F)(F)F, the activity coefficient was 2.83 ± 0.19. CCOC(C)(C)C [2-ethoxy-2-methylpropane] + CCCCCCCCCCCCn1cc[n+](C)c1.O=S(=O)([N-]S(=O)(=O)C(F)(F)F)C(F)(F)F gave an activity coefficient of 1.55 ± 0.1. CCC(C)(C)OC [2-methoxy-2-methylbutane] + CCCCCCCCCCCCn1cc[n+](C)c1.O=S(=O)([N-]S(=O)(=O)C(F)(F)F)C(F)(F)F gave an activity coefficient of 1.11 ± 0.07. For COC(C)(C)C [2-methoxy-2-methylpropane] + CCCCCCCCCCCCn1cc[n+](C)c1.O=S(=O)([N-]S(=O)(=O)C(F)(F)F)C(F)(F)F, the activity coefficient was 0.93 ± 0.059. Work on CC(C)CO [2-methyl-1-propanol] + CCCCCCCCCCCCn1cc[n+](C)c1.O=S(=O)([N-]S(=O)(=O)C(F)(F)F)C(F)(F)F yielded an activity coefficient of 1.52 ± 0.1. With CC(C)(C)O [2-methylpropan-2-ol] + CCCCCCCCCCCCn1cc[n+](C)c1.O=S(=O)([N-]S(=O)(=O)C(F)(F)F)C(F)(F)F the activity coefficient was 1.12 ± 0.07. CCC(C)CC [3-methylpentane] + CCCCCCCCCCCCn1cc[n+](C)c1.O=S(=O)([N-]S(=O)(=O)C(F)(F)F)C(F)(F)F gave an activity coefficient of 2.77 ± 0.19. C=C(C)c1ccccc1 [(1-methylethenyl)benzene] + CCCCCCCCCCCCn1cc[n+](C)c1.O=S(=O)([N-]S(=O)(=O)C(F)(F)F)C(F)(F)F showed an activity coefficient of 0.79 ± 0.05. CC(C)=O [acetone] + CCCCCCCCCCCCn1cc[n+](C)c1.O=S(=O)([N-]S(=O)(=O)C(F)(F)F)C(F)(F)F showed an activity coefficient of 0.353 ± 0.032. CC#N [acetonitrile] + CCCCCCCCCCCCn1cc[n+](C)c1.O=S(=O)([N-]S(=O)(=O)C(F)(F)F)C(F)(F)F gave an activity coefficient of 0.508 ± 0.038. Compound c1ccccc1 [benzene] + CCCCCCCCCCCCn1cc[n+](C)c1.O=S(=O)([N-]S(=O)(=O)C(F)(F)F)C(F)(F)F has an activity coefficient of 0.568 ± 0.041. For CCCCO [butan-1-ol] + CCCCCCCCCCCCn1cc[n+](C)c1.O=S(=O)([N-]S(=O)(=O)C(F)(F)F)C(F)(F)F, the activity coefficient was 1.55 ± 0.1. With CCC(C)O (stereo unspecified) [butan-2-ol] + CCCCCCCCCCCCn1cc[n+](C)c1.O=S(=O)([N-]S(=O)(=O)C(F)(F)F)C(F)(F)F the activity coefficient was 1.29 ± 0.08. CCCC=O [butanal] + CCCCCCCCCCCCn1cc[n+](C)c1.O=S(=O)([N-]S(=O)(=O)C(F)(F)F)C(F)(F)F showed an activity coefficient of 0.464 ± 0.036. C1CCCCCC1 [cycloheptane] + CCCCCCCCCCCCn1cc[n+](C)c1.O=S(=O)([N-]S(=O)(=O)C(F)(F)F)C(F)(F)F showed an activity coefficient of 2.43 ± 0.17. For C1CCCCC1 [cyclohexane] + CCCCCCCCCCCCn1cc[n+](C)c1.O=S(=O)([N-]S(=O)(=O)C(F)(F)F)C(F)(F)F, the activity coefficient was 2.14 ± 0.15. C1=CCCCC1 [cyclohexene] + CCCCCCCCCCCCn1cc[n+](C)c1.O=S(=O)([N-]S(=O)(=O)C(F)(F)F)C(F)(F)F showed an activity coefficient of 1.56 ± 0.1. Work on C1CCCCCCC1 [cyclooctane] + CCCCCCCCCCCCn1cc[n+](C)c1.O=S(=O)([N-]S(=O)(=O)C(F)(F)F)C(F)(F)F yielded an activity coefficient of 2.8 ± 0.19.

Same assay, conditions: 328.15 K; 101.33 kPa; Liquid; Chromatography; x1 = 0
Cc1ccccc1C [1,2-dimethylbenzene] + CCCCCCCCCCCCn1cc[n+](C)c1.O=S(=O)([N-]S(=O)(=O)C(F)(F)F)C(F)(F)F showed an activity coefficient of 0.851 ± 0.055. Cc1cccc(C)c1 [1,3-dimethylbenzene] + CCCCCCCCCCCCn1cc[n+](C)c1.O=S(=O)([N-]S(=O)(=O)C(F)(F)F)C(F)(F)F gave an activity coefficient of 0.918 ± 0.058. For Cc1ccc(C)cc1 [1,4-dimethylbenzene] + CCCCCCCCCCCCn1cc[n+](C)c1.O=S(=O)([N-]S(=O)(=O)C(F)(F)F)C(F)(F)F, the activity coefficient was 0.914 ± 0.058. For C1COCCO1 [1,4-dioxane] + CCCCCCCCCCCCn1cc[n+](C)c1.O=S(=O)([N-]S(=O)(=O)C(F)(F)F)C(F)(F)F, the activity coefficient was 0.499 ± 0.038. Work on C=CCCCCCCCC [1-decene] + CCCCCCCCCCCCn1cc[n+](C)c1.O=S(=O)([N-]S(=O)(=O)C(F)(F)F)C(F)(F)F yielded an activity coefficient of 4.27 ± 0.29. In the case of C=CCCCCC [1-heptene] + CCCCCCCCCCCCn1cc[n+](C)c1.O=S(=O)([N-]S(=O)(=O)C(F)(F)F)C(F)(F)F, the activity coefficient is reported as 2.62 ± 0.18. In the case of C#CCCCCC [1-heptyne] + CCCCCCCCCCCCn1cc[n+](C)c1.O=S(=O)([N-]S(=O)(=O)C(F)(F)F)C(F)(F)F, the activity coefficient is reported as 1.53 ± 0.1. For C#CCCCC [1-hexyne] + CCCCCCCCCCCCn1cc[n+](C)c1.O=S(=O)([N-]S(=O)(=O)C(F)(F)F)C(F)(F)F, the activity coefficient was 1.3 ± 0.08. In the case of CCC[N+](=O)[O-] [1-nitropropane] + CCCCCCCCCCCCn1cc[n+](C)c1.O=S(=O)([N-]S(=O)(=O)C(F)(F)F)C(F)(F)F, the activity coefficient is reported as 0.582 ± 0.041. With C#CCCCCCC [1-octyne] + CCCCCCCCCCCCn1cc[n+](C)c1.O=S(=O)([N-]S(=O)(=O)C(F)(F)F)C(F)(F)F the activity coefficient was 1.8 ± 0.12. Work on C=CCCC [1-pentene] + CCCCCCCCCCCCn1cc[n+](C)c1.O=S(=O)([N-]S(=O)(=O)C(F)(F)F)C(F)(F)F yielded an activity coefficient of 1.88 ± 0.13. Compound C#CCCC [1-pentyne] + CCCCCCCCCCCCn1cc[n+](C)c1.O=S(=O)([N-]S(=O)(=O)C(F)(F)F)C(F)(F)F has an activity coefficient of 1.11 ± 0.07. In the case of CC(C)CC(C)(C)C [2,2,4-trimethylpentane] + CCCCCCCCCCCCn1cc[n+](C)c1.O=S(=O)([N-]S(=O)(=O)C(F)(F)F)C(F)(F)F, the activity coefficient is reported as 3.66 ± 0.25. For CCC(C)(C)C [2,2-dimethylbutane] + CCCCCCCCCCCCn1cc[n+](C)c1.O=S(=O)([N-]S(=O)(=O)C(F)(F)F)C(F)(F)F, the activity coefficient was 2.89 ± 0.2. With CCOC(C)(C)C [2-ethoxy-2-methylpropane] + CCCCCCCCCCCCn1cc[n+](C)c1.O=S(=O)([N-]S(=O)(=O)C(F)(F)F)C(F)(F)F the activity coefficient was 1.62 ± 0.11.
